The series deals with ATP-dependent translocase ABCB1 (Homo sapiens, UniProt P08183). In words: TP_TRANSPORTER: cell accumulation of daunomycin in human K562/R7 leukemic cells. In kind it is functional, cell-based.

Consider one compound from ChEMBL document CHEMBL1148472, “Jatrophane diterpenes as modulators of multidrug resistance. Advances of structure-activity relationships and discovery of the potent lead pepluanin A” (J Med Chem, 2004).

Sequence of ATP-dependent translocase ABCB1 (P08183 whole entry): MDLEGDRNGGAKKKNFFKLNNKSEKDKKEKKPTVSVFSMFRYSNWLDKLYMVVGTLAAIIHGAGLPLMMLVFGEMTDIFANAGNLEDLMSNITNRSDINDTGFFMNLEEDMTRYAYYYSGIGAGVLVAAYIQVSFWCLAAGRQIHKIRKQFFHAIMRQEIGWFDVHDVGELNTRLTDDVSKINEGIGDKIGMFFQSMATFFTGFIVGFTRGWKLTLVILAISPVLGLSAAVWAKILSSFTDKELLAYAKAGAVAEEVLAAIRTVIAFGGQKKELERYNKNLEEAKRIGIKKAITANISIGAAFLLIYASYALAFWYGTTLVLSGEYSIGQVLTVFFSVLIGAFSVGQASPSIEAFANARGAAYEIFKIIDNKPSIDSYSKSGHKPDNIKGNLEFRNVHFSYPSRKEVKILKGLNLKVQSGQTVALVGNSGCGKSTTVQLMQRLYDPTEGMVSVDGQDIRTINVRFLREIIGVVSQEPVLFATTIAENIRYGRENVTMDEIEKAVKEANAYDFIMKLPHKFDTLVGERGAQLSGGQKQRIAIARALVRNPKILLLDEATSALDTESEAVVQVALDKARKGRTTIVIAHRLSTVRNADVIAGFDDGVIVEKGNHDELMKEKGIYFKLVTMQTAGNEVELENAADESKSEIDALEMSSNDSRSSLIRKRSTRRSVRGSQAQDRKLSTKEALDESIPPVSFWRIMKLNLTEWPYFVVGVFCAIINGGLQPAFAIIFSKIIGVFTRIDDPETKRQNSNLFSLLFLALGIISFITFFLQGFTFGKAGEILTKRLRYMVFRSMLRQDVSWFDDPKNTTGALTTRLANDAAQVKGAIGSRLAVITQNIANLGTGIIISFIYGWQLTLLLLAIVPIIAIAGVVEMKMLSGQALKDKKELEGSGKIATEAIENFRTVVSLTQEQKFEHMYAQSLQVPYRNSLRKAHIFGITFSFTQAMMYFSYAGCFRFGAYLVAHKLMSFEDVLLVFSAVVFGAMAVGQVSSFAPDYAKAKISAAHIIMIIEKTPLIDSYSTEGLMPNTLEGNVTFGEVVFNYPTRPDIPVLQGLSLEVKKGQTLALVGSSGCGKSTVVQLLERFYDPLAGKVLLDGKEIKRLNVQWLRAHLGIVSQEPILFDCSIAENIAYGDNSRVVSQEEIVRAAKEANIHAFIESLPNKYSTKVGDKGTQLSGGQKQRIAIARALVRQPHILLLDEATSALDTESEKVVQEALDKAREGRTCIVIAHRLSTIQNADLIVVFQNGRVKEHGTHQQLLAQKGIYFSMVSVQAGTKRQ

For `C=C1[C@@H](OC(C)=O)[C@@H](OC(C)=O)[C@@H](OC(=O)c2cccnc2)C(C)(C)/C=C/[C@H](C)[C@H](OC(C)=O)[C@@]2(O)C[C@@](C)(OC(C)=O)[C@H](OC(=O)c3ccccc3)[C@@H]2[C@H]1OC(C)=O` [PEPLUANIN], the Activity entry was “inhibitor [+]”.
